From article PMC9181887, “In Vitro Antithrombotic, Hematological Toxicity, and Inhibitor Studies of Protocatechuic, Isovanillic, and p-Hydroxybenzoic Acids from Maclura tricuspidata (Carr.) Bur” (Molecules, 2022)
“And” between values parts separate entries of the source, which are not always exact repeats. Equal values may be shown once.

How the values were obtained:
[1] = system: platelet aggregation/activation in whole blood; assay: PFA-100 platelet function assay, collagen/epinephrine cartridge; type: cell-based; details: for Closure time: control 118.6 ± 2.1 s
Method: The effects of the compounds on platelet aggregation/activation and adherence in whole blood under conditions of high shear stress flow were evaluated using a collagen/epinephrine cartridge (Dade Behring, Marburg, Germany) and platelet function analyzer (PFA-100), as previously described. Blood samples were drawn from healthy donors using 3.8% (w/v) sodium citrate. Aliquots of whole blood were treated with different concentrations of compounds and incubated for 5 min at room temperature. Blood samples were added to a collagen/epinephrine cartridge, and the time required for occlusion of the aperture was measured using the analyzer and reported as the closure time. Saline-treated blood was used as a control.

[2] = system: thrombin-activated platelets; assay: Serotonin release assay; type: cell-based; details: p < 0.05
Method: Figure 7 Effect of PA, IVA, and 4-HA on granule secretion. Aliquots of washed platelets pre-treated with or without the compounds for 5 min were stimulated with 0.25 U/mL thrombin at 37 °C for 5 min. After stimulation, the platelets were centrifuged, and the supernatants were collected. Using these supernatants, ATP (A) or serotonin (B) release was determined according to the manufacturer’s instructions. Each value is the mean ± SD of triplicate measurements. # p < 0.01, compared to each control groups. * p < 0.05 and ** p < 0.01, compared to only thrombin-treated control groups. Thrombin, thrombin treated only; PA10-100, 10–100 μg of PA treated; IVA10-100, 10–100 μg of IVA treated; 4-HA10-100, 10–100 μg of 4-HA treated.
Aliquots of washed platelets (250 × 10^6/mL) pre-treated with the compounds for 5 min were activated with 0.25 U/mL of thrombin in the presence of 1 mM of Ca^2+ for 5 min at 37 °C, according to a previously described method, with slight modifications. After stimulation, the reaction solution was centrifuged at 4 °C and 12,000× g for 5 min, and the supernatant was collected for subsequent use. Serotonin release was determined using a serotonin enzyme-linked immunosorbent assay kit (Labor Diagnostika Nord GmbH & Co., Nordhorn, Germany), according to the manufacturer’s instructions.

[3] = system: fibrin polymers and clots (fibrinogen, thrombin, CaCl2); assay: Turbidity assay of fibrin polymer/clot formation; type: biochemical, Human; details: 1, 2, 5, 10, and 20 μg; 2000 s
Method: Inhibition of fibrin clot formation was determined using a turbidity assay as previously described. The reaction mixtures were prepared by the addition of the compounds, 10 IU u-PA as a positive control (PC), or vehicle as a negative control (NC) 2 in a volume of 100 μL of 5 mM CaCl2, 0.5 U/mL of thrombin, and […] fibrinogen in 20 mM Tris-HCl (pH 7.4). The mixture was incubated for 5 min at 37 °C, and turbidity was monitored at 405 nm every 1 min for 2000 s using a microplate reader (Molecular Devices, Sunnyvale, CA, USA). The clot density was presented as a percentage of inhibition.

[4] = system: mouse blood clots; assay: In vitro antithrombotic activity assay using blood clot; details: vs NC group treated with saline, p < 0.01, 1 h
Method: To determine the in vitro antithrombotic activity, a blood clot assay was performed based on a previously described method. All experimental procedures were performed in accordance with the related ethical regulations of Gwangju University, and were approved by the Institutional Animal Care and Use Committee of Jeonnam Institute of Natural Resources Research, Jangheung, South Korea (2021-JINR2001). Fresh mouse blood clots (40 μg) treated with the compounds, 10–20 IU u-PA as PC 1–2, or saline as NC were incubated for 1 h. After incubation, blood clot degradation in each group was analyzed using absorbance values at a wavelength of 410 nm. The maximum absorbance wavelength was determined by measuring the absorption spectra in the wavelength range of 340–850 nm.

[5] = system: platelets; assay: Hematological study, platelet count by hemocytometer; type: cell-based; details: 10 min, vs control
Method: (§1) Figure 1 Blood cytotoxic effect of PA (A), IVA (B), and 4-HA (C). Aliquots of washed platelets (10^3/mL), erythrocytes (10^6/mL), and leukocytes (10^3/mL) were treated with or without the compounds for 10 min and cell number was determined by hemocytometer counts. Each value is the mean ± SD of triplicate measurements. * p < 0.05 and ** p < 0.01, compared to each control groups. 10–500, 10–100 μg of each compound treated.
(§2) Total white blood cells (leukocytes) and red blood cells (erythrocytes) were counted using a hemocytometer, as previously described. Blood was diluted 1:200 with Hayem’s fluid and the cells were counted in a loaded hemocytometer chamber. To count the blood platelets, blood was diluted in a ratio of 1:20 with a diluting fluid, and four large (1 mm^2) corner squares of the hemocytometer were counted under a light microscope. Aliquots of leukocytes (0.1 mL; 10^3/mL), erythrocytes (0.1 mL; 10^6/mL), and platelets (0.1 mL; 10^3/mL) were treated with or without the compounds for 10 min.

[6] = system: leukocytes; assay: Hematological study, leukocyte count by hemocytometer; type: cell-based; details: 10 min, vs control
Method: as §1, §2

| SMILES | Closure time ([1]; 10 μg) [s] | Closure time ([1]; 20 μg) [s] | Closure time, fold of control ([1]; 50 μg) [fold] | Closure time ([1]; 50 μg) | Closure time, fold of control ([1]; 100 μg) [fold] | Closure time ([1]; 100 μg) | thrombin-stimulated serotonin secretion ([2]; 100 μg) | fibrin polymer/clot formation (turbidity at 405 nm) [3] | blood clot degradation [4] | effect on platelet number ([5]; 10–50 μg/mL) | effect on leukocyte number ([6]; 10–50 μg/mL) | thrombin-stimulated serotonin secretion ([2]; 50–100 μg) | effect on platelet number ([5]; 10–100 μg/mL) | effect on leukocyte number ([6]; 10–100 μg/mL) |
| --- | --- | --- | --- | --- | --- | --- | --- | --- | --- | --- | --- | --- | --- | --- |
| O=C(O)c1ccc(O)cc1 [4-HA, 4-hydroxybenzoic acid] | 121.2 ± 1.9 | 127.7 ± 3.1 | 1.13 | 134.6 s and 134.6 ± 4.5 s | 1.24 | 147.3 s and 147.3 ± 5.8 s | inhibited significantly | dose-dependently inhibited | significantly degraded | did not cause any effect | did not cause any effect |  |  |  |
| COc1ccc(C(=O)O)cc1O [IVA, isovanillic acid] | 118.5 ± 1.8 | 119.7 ± 2.8 |  | 123.5 ± 2.2 s | 1.09 | 129.4 ± 3.4 s |  | dose-dependently inhibited | significantly degraded | did not cause any effect | did not cause any effect | inhibited significantly |  |  |
| O=C(O)c1ccc(O)c(O)c1 [PA, protocatechuic acid] | 119.9 ± 2.4 | 122.1 ± 1.4 |  | 126.3 ± 2.9 s | 1.13 | 133.7 ± 5.2 s | inhibited significantly | dose-dependently inhibited | significantly degraded |  |  |  | did not cause any effect | did not cause any effect |
